pIC50: −log10 of the molar value.
Biological target: SIK2 (Homo sapiens (Human), UniProt Q9H0K1)
Assay: SIK2 Enzymatic Assay Version 2 (High ATP)
Format: biochemical
Conditions: 3 mM ATP and 200 μM HDAC5tide final, ADP-Glo Max luminescence
Summary of the method: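 Luminescent ADP-Glo Max read-out: depletion reagent 2 h, then detection reagent 1 h. Before the reaction, compounds were incubated 30 min with enzyme added at 6 nM (twice final concentration), with all steps at room temperature.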

SIK2, sequence (Q9H0K1 whole entry, species assumed): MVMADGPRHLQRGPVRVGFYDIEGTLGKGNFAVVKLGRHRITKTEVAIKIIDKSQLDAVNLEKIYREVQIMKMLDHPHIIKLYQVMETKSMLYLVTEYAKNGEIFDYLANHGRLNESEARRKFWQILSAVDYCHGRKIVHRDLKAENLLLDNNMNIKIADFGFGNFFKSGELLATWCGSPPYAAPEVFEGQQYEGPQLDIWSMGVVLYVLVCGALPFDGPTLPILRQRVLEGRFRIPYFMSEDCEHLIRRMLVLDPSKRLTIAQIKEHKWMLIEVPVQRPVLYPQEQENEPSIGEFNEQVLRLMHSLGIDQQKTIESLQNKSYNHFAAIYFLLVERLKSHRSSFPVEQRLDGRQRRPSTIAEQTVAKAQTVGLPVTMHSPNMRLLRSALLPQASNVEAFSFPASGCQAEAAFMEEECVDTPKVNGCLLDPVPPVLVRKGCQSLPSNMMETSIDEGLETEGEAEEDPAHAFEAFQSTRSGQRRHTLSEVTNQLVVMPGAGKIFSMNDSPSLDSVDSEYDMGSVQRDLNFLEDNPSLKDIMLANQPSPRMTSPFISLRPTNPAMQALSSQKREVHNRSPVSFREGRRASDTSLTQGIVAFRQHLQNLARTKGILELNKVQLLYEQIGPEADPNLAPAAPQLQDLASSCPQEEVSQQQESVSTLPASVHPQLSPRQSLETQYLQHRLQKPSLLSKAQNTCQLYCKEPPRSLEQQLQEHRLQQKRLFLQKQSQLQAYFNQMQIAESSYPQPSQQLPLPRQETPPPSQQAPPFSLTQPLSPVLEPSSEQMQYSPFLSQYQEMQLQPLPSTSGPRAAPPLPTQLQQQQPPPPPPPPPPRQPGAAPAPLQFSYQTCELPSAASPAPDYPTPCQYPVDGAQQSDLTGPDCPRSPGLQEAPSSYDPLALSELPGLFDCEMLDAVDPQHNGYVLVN

| Compound | pIC50 |
| --- | --- |
| CO[C@@]1(COc2noc(C)c2-c2ccn3nc(NC(=O)C4CC4)cc3c2)CCNC1 (single isomer, unassigned) [Example 209, (*S)—N-(5-(3-((3-methoxypyrrolidin-3-yl)methoxy)-5-methylisoxazol-4-yl)pyrazolo[1,5-a]pyridin-2-yl)cyclopropanecarboxamide] | 7.83 |
| Cc1cncc(Nc2cc3cc(-c4c(CO[C@H]5CN(C)C[C@@H]5C)cnn4C)ccn3n2)n1 (stereo in doubt) [Example 374, Trans-*S, *R-5-[4-[(1,4-dimethylpyrrolidin-3-yl)oxymethyl]-2-methyl-pyrazol-3-yl]-N-(6-methylpyrazin-2-yl)pyrazolo[1,5-a]pyridin-2-amine] | 7.76 |
| CO[C@H]1CNC[C@H]1Oc1noc(C)c1-c1ccn2nc(NC(=O)C3CC3)cc2c1 (single isomer, unassigned) [Example 385, (3*R,4*S)—N-[5-[3-(4-methoxypyrrolidin-3-yl)oxy-5-methyl-isoxazol-4-yl]pyrazolo[1,5-a]pyridin-2-yl]cyclopropanecarboxamide] | 6.91 |
| CN1CC[C@@H]1COc1cnn(C)c1-c1ccn2nc(Nc3cnc(OC(F)F)cn3)cc2c1 [Example 155, N-[5-(difluoromethoxy)pyrazin-2-yl]-5-[2-methyl-4-[[(2R)-1-methylazetidin-2-yl]methoxy]pyrazol-3-yl]pyrazolo[1,5-a]pyridin-2-amine] | 8.18 |
| CN1CC[C@@H]1COc1cnn(C)c1-c1ccn2nc(Nc3ccc(C(=O)NCC(C)(C)C#N)cn3)cc2c1 [Example 36, N-(2-cyano-2-methyl-propyl)-6-[[5-[2-methyl-4-[[(2R)-1-methylazetidin-2-yl]methoxy]pyrazol-3-yl]pyrazolo[1,5-a]pyridin-2-yl]amino]pyridine-3-carboxamide] | 7.99 |
| Cc1cc(Nc2cc3cc(-c4c(OCC(N)C5(C)CC5)cnn4C)ccn3n2)nc(C)n1 (stereo not drawn) [Example 309, 5-[4-[2-amino-2-(1-methylcyclopropyl)ethoxy]-2-methyl-pyrazol-3-yl]-N-(2,6-dimethylpyrimidin-4-yl)pyrazolo[1,5-a]pyridin-2-amine] | 8.54 |
| CCN1CC[C@@H]1COc1cnn(C(F)F)c1-c1ccn2nc(Nc3cnc(C)cn3)cc2c1 [Example 264, 5-[2-(difluoromethyl)-4-[[(2R)-1-ethylazetidin-2-yl]methoxy]pyrazol-3-yl]-N-(5-methylpyrazin-2-yl)pyrazolo[1,5-a]pyridin-2-amine] | 8.11 |
| [2H]C([2H])([2H])N1CCC[C@@H]1COc1cnn(C)c1-c1ccn2nc(NC(=O)C3CC3)cc2c1 [Example 249, N-[5-[2-methyl-4-[[(2R)-1-(trideuteriomethyl)pyrrolidin-2-yl]methoxy]pyrazol-3-yl]pyrazolo[1,5-a]pyridin-2-yl]cyclopropanecarboxamide] | 7.59 |
| CO[C@H]1CN(C)C[C@H]1Oc1cnn(C)c1-c1ccn2nc(NC(=O)C3CC3)cc2c1 (single isomer, unassigned) [Example 411, (3*R,4*S)—N-[5-[4-(4-methoxy-1-methyl-pyrrolidin-3-yl)oxy-2-methyl-pyrazol-3-yl]pyrazolo[1,5-a]pyridin-2-yl]cyclopropanecarboxamide] | 7.06 |
| Cc1cc(Nc2cc3cc(-c4c(OC[C@H]5CCCN5C)cnn4C)ccn3n2)nc(C(F)(F)F)n1 [Example 283, 5-[2-methyl-4-[[(2R)-1-methylpyrrolidin-2-yl]methoxy]pyrazol-3-yl]-N-[6-methyl-2-(trifluoromethyl)pyrimidin-4-yl]pyrazolo[1,5-a]pyridin-2-amine] | 8.47 |
| Cc1cc(Nc2cn3cc(-c4c(OC[C@H]5CCN5C)cnn4C)ccc3n2)nc(C)n1 [Example 485, N-(2,6-dimethylpyrimidin-4-yl)-6-[2-methyl-4-[[(2R)-1-methylazetidin-2-yl]methoxy]pyrazol-3-yl]imidazo[1,2-a]pyridin-2-amine] | 8.96 |
| Cc1cc(Nc2cc3cc(-c4c(O[C@@H]5CNC[C@@H]5F)cnn4C(F)F)ccn3n2)nc(C)n1 [Example 32, 5-[2-(difluoromethyl)-4-[(3R,4S)-4-fluoropyrrolidin-3-yl]oxy-pyrazol-3-yl]-N-(2,6-dimethylpyrimidin-4-yl)pyrazolo[1,5-a]pyridin-2-amine] | 8.18 |
| Cc1cc(Nc2cc3cc(-c4c(OC[C@H]5CCN5C)cnn4C)ccn3n2)nc2c1CCC2 [Example 136, N-(4-methyl-6,7-dihydro-5H-cyclopenta[b]pyridin-2-yl)-5-[2-methyl-4-[[(2R)-1-methylazetidin-2-yl]methoxy]pyrazol-3-yl]pyrazolo[1,5-a]pyridin-2-amine] | 8.64 |
| CCN1CC[C@@H]1COc1cnn(C)c1-c1ccn2nc(Nc3ncc(F)cn3)cc2c1 [Example 176, (R)-5-(4-((1-ethylazetidin-2-yl)methoxy)-1-methyl-1H-pyrazol-5-yl)-N-(5-fluoropyrimidin-2-yl)pyrazolo[1,5-a]pyridin-2-amine] | 7.14 |
| CO[C@@H]1CN(C)C[C@@H]1Oc1noc(C)c1-c1ccn2nc(NC(=O)C3CC3)cc2c1 (relative stereo) [Example 317, *S, *R—N-[5-[3-(4-methoxy-1-methyl-pyrrolidin-3-yl)oxy-5-methyl-isoxazol-4-yl]pyrazolo[1,5-a]pyridin-2-yl]cyclopropanecarboxamide] | 7.17 |
| COCCNC(=O)c1ccc(Nc2cc3cc(-c4c(OC[C@H]5CCN5C)cnn4C)ccn3n2)nc1 [Example 107, N-(2-methoxyethyl)-6-[[5-[2-methyl-4-[[(2R)-1-methylazetidin-2-yl]methoxy]pyrazol-3-yl]pyrazolo[1,5-a]pyridin-2-yl]amino]pyridine-3-carboxamide] | 8.48 |
| CCN1CC[C@@H]1COc1cnn(C)c1-c1ccn2nc(Nc3cnc(C(=O)OC)cn3)cc2c1 [Example 311, methyl 5-[[5-[4-[[(2R)-1-ethylazetidin-2-yl]methoxy]-2-methyl-pyrazol-3-yl]pyrazolo[1,5-a]pyridin-2-yl]amino]pyrazine-2-carboxylate] | 8.85 |
| Cc1cnc(Nc2cc3cc(-c4c(OC[C@H]5CCN5CCF)cnn4C)ccn3n2)cn1 [Example 279, 5-[4-[[(2R)-1-(2-fluoroethyl)azetidin-2-yl]methoxy]-2-methyl-pyrazol-3-yl]-N-(5-methylpyrazin-2-yl)pyrazolo[1,5-a]pyridin-2-amine] | 8.74 |
| Cc1onc(OCC2(c3ccccc3)CNC2)c1-c1ccn2nc(NC(=O)C3CC3)cc2c1 [Example 199, N-[5-[5-methyl-3-[(3-phenylazetidin-3-yl)methoxy]isoxazol-4-yl]pyrazolo[1,5-a]pyridin-2-yl]cyclopropanecarboxamide] | 7.85 |
| Cn1ncc(OCC2(N)COC2)c1-c1ccn2nc(NC(=O)C3CC3)cc2c1 [Example 402, N-[5-[4-[(3-aminooxetan-3-yl)methoxy]-2-methyl-pyrazol-3-yl]pyrazolo[1,5-a]pyridin-2-yl]cyclopropanecarboxamide] | 7.03 |
| CN1CC[C@@H]1COc1cnn(C)c1-c1ccn2nc(Nc3cnc(C(F)(F)F)cn3)cc2c1 [Example 150, 5-[2-methyl-4-[[(2R)-1-methylazetidin-2-yl]methoxy]pyrazol-3-yl]-N-[5-(trifluoromethyl)pyrazin-2-yl]pyrazolo[1,5-a]pyridin-2-amine] | 8.12 |

From patent US20240174662A1, “SMALL MOLECULE INHIBITORS OF SALT INDUCIBLE KINASES” (Janssen Biotech, Inc., priority 2021, published 2024)
